Assay results: patent publication US20250011368A1, “DLL3 TARGETING PEPTIDES AND CONSTRUCTS THEREOF” (MARIANA ONCOLOGY INC., priority 2023, published 2025)
Numbered stars: 1 amine (or outer) side, 2 acyl side, 3 side chain; on linkers, the order of the positions; unused ones are H or OH. Bridge positions count the residues as written; N and C are the ends. Square brackets hold non-standard residues; d marks the D form. Peptide text beside a SMILES is read from it. * marks the point of attachment. Ala(piperidin-4-yl) = O=C([C@H](CC1CCN([*:3])CC1)N[*:1])[*:2]; DOTA = O=C(O)CN1CCN(CC(=O)O)CCN(CC(=O)*)CCN(CC(=O)O)CC1; Trp(5-F) = N[C@@H](Cc1c[nH]c2ccc(F)cc12)C(=O)O; Trp(7-aza) = N[C@@H](Cc1c[nH]c2ncccc12)C(=O)O; Pro(trans-4-F) = O=C(O)[C@@H]1C[C@@H](F)CN1; 2Nal = N[C@@H](Cc1ccc2ccccc2c1)C(=O)O; Cha = N[C@@H](CC1CCCCC1)C(=O)O; Lauroyl = CCCCCCCCCCCC(=O)*

Key:
[1] = test system: CT26.DLL3 cells; experiment: Internalization (out of bound fraction) of [177Lu]Lu-test peptide, CT26.DLL3 cells; format: cell-based; details: 1 hour at 37° C., glycine pH 2.5 wash
Procedure, shortened: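 [177Lu]Lu-peptide (labelled at 80 °C, pH ~5, 17-20 min) incubated with 5-25 million CT26.DLL3 cells in 1% PBSA, 0.8 μCi, 1 h at 37 °C. Surface-bound activity stripped twice with 50 mM glycine pH 2.5, 3 min; NaOH-solubilized cell activity gamma-counted as internalized fraction, binned ≤25%, 25-50%, >50%.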

[2] = test system: SHP-77 tumors; experiment: Ex vivo biodistribution of radiolabeled peptides in nude mice bearing SHP-77 tumors; details: [177Lu]Lu labelling, nude mice bearing SHP-77 tumors (n = 3), 24 hours post-injection
Procedure, shortened: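 Nude mice bearing SHP-77 xenografts (200-400 mm^3) or tumor-naïve mice (5-7 weeks) received an intravenous tail-vein bolus of [^177Lu]Lu-peptide and were euthanized at pre-set time points. Tissues were weighed and gamma-counted, with counts decay-corrected to injection time. Values are % IA/g per tissue from the injected activity of each mouse.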

[3] = molecular target: T1, human DLL3 (Homo sapiens, UniProt Q9NYJ7); experiment: Affinity determination by Surface Plasmon Resonance (SPR); format: binding; details: 25° C., biotinylated human DLL3 immobilized on streptavidin sensor chip, 1:1 binding model; read-out: SPR KD
T1 sequence (Q9NYJ7 27-618): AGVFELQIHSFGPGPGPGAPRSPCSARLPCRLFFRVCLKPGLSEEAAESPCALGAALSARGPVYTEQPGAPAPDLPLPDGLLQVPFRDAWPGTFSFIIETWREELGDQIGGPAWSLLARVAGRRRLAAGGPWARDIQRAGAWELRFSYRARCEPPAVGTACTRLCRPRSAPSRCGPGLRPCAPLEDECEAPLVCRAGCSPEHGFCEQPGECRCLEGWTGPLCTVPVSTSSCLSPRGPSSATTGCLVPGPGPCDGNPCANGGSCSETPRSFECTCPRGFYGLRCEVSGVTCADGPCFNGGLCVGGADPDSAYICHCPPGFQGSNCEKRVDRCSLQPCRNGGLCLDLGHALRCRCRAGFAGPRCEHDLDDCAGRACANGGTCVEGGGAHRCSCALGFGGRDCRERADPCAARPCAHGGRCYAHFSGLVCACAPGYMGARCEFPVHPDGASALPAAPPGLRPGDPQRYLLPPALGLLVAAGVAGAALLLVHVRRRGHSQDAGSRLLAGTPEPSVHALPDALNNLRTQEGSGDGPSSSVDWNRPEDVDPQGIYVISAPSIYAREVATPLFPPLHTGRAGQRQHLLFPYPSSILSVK
Procedure, shortened: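 Kinetic and affinity constants were derived by fitting sensorgrams to a 1:1 binding model. Graded compound concentrations flowed at 100 μL/minute in 20 mM phosphate running buffer with 2% DMSO over streptavidin-immobilized biotinylated human DLL3, reference-subtracted.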

[4] = test system: CT26.DLL3 cells; experiment: Cell binding (total uptake) of [177Lu]Lu-test peptide, CT26.DLL3 cells; format: cell-based; details: 1 hour at 37° C.
Procedure, shortened: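 CT26.DLL3 cells (5–25 million/condition) in 1% PBSA incubated 1 h at 37°C with [177Lu]Lu-labelled peptide (0.8 μCi in 300 μL), radiolabelled at pH ~5, 80°C. Cells pelleted, washed twice with cold PBS+1% BSA; bound and unbound fractions gamma-counted, uptake binned as ≤25%, 25–50%, >50%.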

[5] = test system: SHP-77 cells; experiment: Cell binding (total uptake) of [177Lu]Lu-test peptide, SHP-77 cells; format: cell-based; details: SHP77 cells, 1 hour at 37° C., bound fraction
Description: [^177Lu]LuCl3 was received from venders in HCl solution. For every mCi of [^177Lu]LuCl3 added to the reaction vial (1.5 mL Eppendorf vial), ammonium acetate buffer (0.2 M, pH 4.9, 100 μL, containing 1% w/v ascorbic acid and 6% v/v ethanol) and peptide conjugate (1 nmol). A peptide conjugate of the present disclosure is also referred to herein as a “chelator-peptide”. The pH of the solution was determined to be approximately 5 by using pH strips. The reaction vial was incubated at 80° C., 700 RPM for 17-20 minutes. A sample from the reaction was analyzed by RP-HPLC using an Agilent Infinity II 1260 HPLC to determine reaction completion and radiochemical purity of [^177Lu]Lu-chelator-peptide. HPLC conditions: Waters XBridge BEH C18 Column, 130 Å, 3.5 um, 4.6 mm×250 mm; mobile phase: Solvent A=water (with 0.1% formic acid), solvent B=acetonitrile (with 0.1% formic acid). Gradients: 25-45% B in 10 minutes, 45-65% B in 12 minutes, 65-90% in 6 minutes at a flow rate of 0.5 mL/minute. Required amounts of the product was formulated in 1% PBSA for cell studies.
The study was conducted using SHP-77, CT26.WT, and CT26.DLL3 cells (Table 7) Adherent cell studies: The cells were cultured in appropriate culture media (20 mL) in tissue culture treated T150 flasks at 37° C. and 5% CO2. Adherent cells were detached (60-70% confluent) using 5 mL Versene at 37° C. for 3 minutes. After confirming the viability using countess and count of detached cells using Trypan blue, the cells were centrifuged at 4° C. for 5 minutes (1,000 rpm). The cell pellet obtained was washed once with PBS and resuspended in 1% PBSA to obtain the desired cell concentration (5-25 million cells/mL).
Suspension cell studies: The cells were cultured in appropriate culture media (20 mL) in tissue culture treated T150 flasks at 37° C. and 5% CO2. After confirming the viability and count of detached cells using Trypan blue, the cells were centrifuged at 4° C. for 5 minutes (1,000 rpm). The cell pellet obtained was washed once with PBS and resuspended in 1% PBSA to obtain the desired cell concentration (5-25 million cells/mL).
Cell numbers used for the assay were in the range of 5 million cells/condition −25 million cells/condition.
Total uptake: Cells were incubated with 300 μL (0.8 μCi) of the incubation buffer (containing radiolabeled peptide [^177Lu] Lu-test peptide) for 1 hour at 37° C. (Table 8). Post incubation, the cells were pelleted and washed 2 times using cold PBS+1% BSA. The supernatant and washes were combined and counted together as “unbound fraction” in a gamma counter. The cells were then resuspended in 300 μL of 1% PBS+1% BSA and counted in the gamma counter as “bound fraction”.
In these Tables, “A” represents %≤25; “B” represents 25<%≤50; “C” represents %>50.

[6] = test system: SHP-77 cells; experiment: Internalization (out of bound fraction) of [177Lu]Lu-test peptide, SHP-77 cells; format: cell-based; details: SHP77 cells, 1 hour at 37° C., after 50 mM Glycine pH=2.5 wash
Description: [^177Lu]LuCl3 was received from venders in HCl solution. For every mCi of [^177Lu]LuCl3 added to the reaction vial (1.5 mL Eppendorf vial), ammonium acetate buffer (0.2 M, pH 4.9, 100 μL, containing 1% w/v ascorbic acid and 6% v/v ethanol) and peptide conjugate (1 nmol). A peptide conjugate of the present disclosure is also referred to herein as a “chelator-peptide”. The pH of the solution was determined to be approximately 5 by using pH strips. The reaction vial was incubated at 80° C., 700 RPM for 17-20 minutes. A sample from the reaction was analyzed by RP-HPLC using an Agilent Infinity II 1260 HPLC to determine reaction completion and radiochemical purity of [^177Lu]Lu-chelator-peptide. […]
Total uptake: Cells were incubated with 300 μL (0.8 μCi) of the incubation buffer (containing radiolabeled peptide [^177Lu] Lu-test peptide) for 1 hour at 37° C. […] The supernatant and washes were combined and counted together as “unbound fraction” in a gamma counter. The cells were then resuspended in 300 μL of 1% PBS+1% BSA and counted in the gamma counter as “bound fraction”.
Internalization: The resuspended cells in 300 μl of 1% PBSA and counted in the gamma counter as “bound fraction” were collected in 1.5 mL Eppendorf tube and pelleted. […] This was counted in the gamma counter as “internalized fraction”. […]

[7] = molecular target: T2, Biotinylated human DLL3 (Delta Like Canonical Notch Ligand 3) (human, UniProt Q9NYJ7 27-492, limits assumed, biotinylated (site not stated)); experiment: SPR; letter grade, key in paragraph 614; upper limit of grade B
T2 construct: also called Delta-like protein 3; biotinylated target ligand human DLL3
T2 sequence: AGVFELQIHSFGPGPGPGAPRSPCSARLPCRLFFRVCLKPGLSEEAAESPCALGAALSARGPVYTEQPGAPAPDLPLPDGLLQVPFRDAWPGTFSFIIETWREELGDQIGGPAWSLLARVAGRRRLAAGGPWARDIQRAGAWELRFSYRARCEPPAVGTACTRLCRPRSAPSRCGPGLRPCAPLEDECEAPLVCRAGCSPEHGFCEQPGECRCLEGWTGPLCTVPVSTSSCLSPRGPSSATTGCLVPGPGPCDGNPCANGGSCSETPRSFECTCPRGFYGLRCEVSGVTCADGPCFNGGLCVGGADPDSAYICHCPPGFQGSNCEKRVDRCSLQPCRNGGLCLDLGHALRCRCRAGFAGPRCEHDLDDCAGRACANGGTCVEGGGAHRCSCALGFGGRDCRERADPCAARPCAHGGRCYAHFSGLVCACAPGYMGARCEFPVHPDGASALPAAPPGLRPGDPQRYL
Description: (§1) Biotinylated target ligand human DLL3 was immobilized on a streptavidin sensor chip. A reference surface was set up for nonspecific binding and refractive index changes. For analysis of the kinetics of interactions, varying concentrations of samples were injected at a flow rate of 100 μL/minute using running buffer containing 20 mM phosphate buffer with 2.7 mM KCl, 137 mM NaCl, 0.05% Surfactant P20 and 2% DMSO. Sensorgram curves were fitted with 1:1 binding model, and affinity and kinetic parameters were obtained using Biacore Insight evaluation 4.0. software.

[8] = molecular target: T2, Biotinylated human DLL3 (Delta Like …); experiment: SPR; letter grade, key in paragraph 614; lower limit of grade B
Description: as §1

[9] = molecular target: Biotinylated human DLL3 (Delta Like Canonical Notch Ligand 3) (human) (UniProt Q9NYJ7); experiment: SPR; letter grade, key in paragraph 614

CCCCCCCCCCCC(=O)NCCCC[C@@H]1NC(=O)[C@H](Cc2ccc3ccccc3c2)NC(=O)[C@H](CC(N)=O)NC(=O)[C@H](CC2CCNCC2)NC(=O)[C@@H](NC(=O)[C@@H](NC(=O)[C@@H](NC(=O)[C@H](Cc2c[nH]c3ccccc23)NC(C)=O)[C@@H](C)O)[C@@H](C)CC)CSSC[C@@H](C(=O)N[C@@H](Cc2c[nH]c3ccccc23)C(=O)N2CCC[C@H]2C(=O)N[C@H](CCCCNC(=O)CN2CCN(CC(=O)O)CCN(CC(=O)O)CCN(CC(=O)O)CC2)C(N)=O)NC(=O)[C@H](CC(=O)O)NC1=O [compound 326, Ac-W-T-I-C(3)-[3-(4-piperidinyl)-Ala]-N-(2Nal)-K(C12)-D-C(3)-W-P-[D-Lys(DOTA)]-NH2] (Ac-WTIC[Ala(piperidin-4-yl)]N[2Nal]K(Lauroyl)DCWP[dK](DOTA)-NH2; disulfide 4-10)
% Internalization (out of bound fraction) [1]: C (%>50) | kidney uptake (% IA/g) ([2]; kidney): C (0 < % IA/g ≤ 10 in kidney) | tumor uptake (% IA/g) ([2]; tumor): A (0 < % IA/g ≤ 5 in tumor) | Kd [3]: 1 to 10 nM | % Binding [4]: A (%≤25) | % Binding [5]: A (%≤25) | % Internalization (out of bound fraction) [6]: B (25<%≤50)

Ac-WTICNNWHDCWP[dK](DOTA)-NH2 (disulfide 4-10) [Cpd No. 23]
Kd [7]: ≤ 10 nM | Kd [8]: > 1 nM

Ac-[Trp(5-F)]T[Cha]CNN[2Nal]HDC[Trp(7-aza)][Pro(trans-4-F)][dK](DOTA)-NH2 (disulfide 4-10) [Cpd No. 245]
Kd [9]: < 1 nM
